Data set [1] can be described thus: Log D (shake flask, 1-octanol/aqueous buffer). In kind it is physicochemical. The note with it: for logD: 1-octanol/aqueous buffer, pH 7.4, pH 7.4.
Data set [2] concerns the target Estrogen Receptor (ERα) in MCF-7 cells (Homo sapiens (Human), UniProt P03372). The data set can be described thus: MCF-7 ER down-regulation assay (immuno-fluorescence). In kind it is cell-based.
Protocol: The ability of compounds to down-regulate Estrogen Receptor (ER) numbers was assessed in a cell based immuno-fluorescence assay using the MCF-7 human ductal carcinoma breast cell line. MCF-7 cells were revived directly from a cryovial (approx 5×10^6 cells) in Assay Medium (phenol red free Dulbecco's Modified Eagle's medium (DMEM); Sigma D5921) containing 2 mM L-Glutamine and 5% (v/v) Charcoal/Dextran treated foetal calf serum. Cells were syringed once using a sterile 18G×1.5 inch (1.2×40 mm) broad gauge needle and cell density was measured using a Coulter Counter (Beckman). […] Following cell seeding, plates were incubated overnight at 37° C., 5% CO2 (Liconic carousel incubator). Test data was generated using the LabCyte Echomodel 555 compound reformatter which is part of an automated workcell (Integrated Echo 2 workcell). Compound stock solutions (10 mM) of the test compounds were used to generate a 384 well compound dosing plate (Labcyte P-05525-CV1). […] 40 μL of DMSO added to wells in row P on the source plate allowed for DMSO normalisation across the dose range. To dose the control wells 40 μL of DMSO was added to row O1 and 40 μL of 100 μM fulvestrant in DMSO was added to row O3 on the compound source plate.
The Echo uses acoustic technology to perform direct microplate-to-microplate transfers of DMSO compound solutions to assay plates. The system can be programmed to transfer volumes as low as 2.5 nL in multiple increments between microplates and in so doing generates a serial dilution of compound in the assay plate which is then back-filled to normalise the DMSO concentration across the dilution range. […] The fixing method described above was carried out on the Integrated Echo 2 workcell. Immunostaining was performed using an automated AutoElisa workcell. The PBS/Proclin was aspirated from all wells and the cells permeabilised with 40 μL PBS containing 0.5% Tween™ 20 (v/v) for 1 hour at room temperature. The plates were washed three times in 250 μL of PBS/0.05% (v/v) Tween 20 with Proclin (PBST with a Biocide preservative) and then 20 μL of ERα (SP1) Rabbit monoclonal antibody (Thermofisher) 1:1000 in PBS/Tween™/3% (w/v) Bovine Serum Albumin was added. The plates were incubated overnight at 4° C. (Liconic carousel incubator) and then washed three times in 250 μL of PBS/0.05% (v/v) Tween™ 20 with Proclin (PBST). The plates were then incubated with 20 μL/well of a goat anti-rabbit IgG AlexaFluor 594 or goat anti-rabbit AlexaFluor 488 antibody (Molecular Probes) with Hoechst at 1:5000 in PBS/Tween™/3% (w/v) Bovine Serum Albumin for 1 hour at room temperature. The plates were then washed three times in 250 μL of PBS/0.05% (v/v) Tween™ 20 with Proclin (PBST with a Biocide preservative). 20 μL of PBS was added to each well and the plates covered with a black plate seal and stored at 4° C. before being read. […] The mean total intensity was normalized for cell number giving the total intensity per cell. The data was exported into a suitable software package (such as Origin) to perform curve fitting analysis.
A short description of data set [3]: Human plasma protein binding (equilibrium dialysis). In kind it is in vitro ADME. (Equilibrium dialysis compares concentrations on both sides of a semipermeable membrane.)
Data set [4] is described as follows: Thermodynamic solubility (shake-flask). The following applies: phosphate buffer pH 7.4, 24 hours. It counts as physicochemical.
Data set [5] deals with recombinant human Estrogen Receptor alpha ligand binding domain (ER alpha-LBD (GST)) (Homo sapiens (Human), UniProt P03372). Kind of data set: ERα binding assay (LanthaScreen TR-FRET competition). (In general: Time-resolved FRET reads energy transfer from a long-lived donor to a nearby acceptor.)
The mark [6] stands for this setting: aqueous phosphate buffer, 25 °C, pH 7.4, aqueous buffer, thermodynamic from solid.

As a reminder, the logD is the decadic logarithm of the distribution of all forms, ionised or not, between an organic phase and buffer at a given pH. Higher therefore signals higher lipophilicity. In general, IC50 refers to the concentration that gives 50% inhibition. What is called solubility is how much of the substance goes into solution per volume.

SMILES strings stand for the structures. ≈ marks a conversion by molar mass, not a printed value.

Estrogen Receptor (ERα) in MCF-7 cells, sequence (P03372 whole entry): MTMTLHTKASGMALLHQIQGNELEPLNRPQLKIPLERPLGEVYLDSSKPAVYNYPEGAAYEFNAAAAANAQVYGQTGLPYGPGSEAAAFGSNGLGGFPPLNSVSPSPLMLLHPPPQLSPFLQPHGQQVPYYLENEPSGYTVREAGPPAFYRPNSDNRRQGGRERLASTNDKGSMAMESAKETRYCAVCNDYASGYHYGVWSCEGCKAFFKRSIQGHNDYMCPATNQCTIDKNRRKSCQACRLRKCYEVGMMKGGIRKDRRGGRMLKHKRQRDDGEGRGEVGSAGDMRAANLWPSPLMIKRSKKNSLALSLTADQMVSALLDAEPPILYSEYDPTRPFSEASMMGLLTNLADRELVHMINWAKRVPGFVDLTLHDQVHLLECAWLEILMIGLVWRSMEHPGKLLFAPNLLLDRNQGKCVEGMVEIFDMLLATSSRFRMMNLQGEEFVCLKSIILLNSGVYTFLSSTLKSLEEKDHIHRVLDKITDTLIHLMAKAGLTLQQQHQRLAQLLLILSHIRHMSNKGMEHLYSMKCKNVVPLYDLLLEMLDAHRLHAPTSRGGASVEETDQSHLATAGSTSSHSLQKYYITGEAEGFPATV
recombinant human Estrogen Receptor alpha ligand binding domain (ER alpha-LBD (GST)), sequence (P03372 307-554): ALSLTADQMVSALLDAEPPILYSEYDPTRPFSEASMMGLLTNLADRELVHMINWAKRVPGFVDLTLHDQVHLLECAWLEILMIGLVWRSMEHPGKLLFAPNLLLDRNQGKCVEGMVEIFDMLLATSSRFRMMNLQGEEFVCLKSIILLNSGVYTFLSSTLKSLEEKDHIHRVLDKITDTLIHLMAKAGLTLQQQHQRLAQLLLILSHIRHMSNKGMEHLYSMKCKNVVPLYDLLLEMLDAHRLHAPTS

Turning to `C[C@@H]1Cc2c([nH]c3ccc(F)cc23)[C@@H](c2c(F)cnc(OCCNCCCF)c2F)N1CC1(F)CC1` [Example 109, N-(2-((3,5-difluoro-4-((1R,3R)-6-fluoro-2-((1-fluorocyclopropyl)methyl)-3-methyl-2,3,4,9-tetrahydro-1H-pyrido[3,4-b]indol-1-yl)pyridin-2-yl)oxy)ethyl)-3-fluoropropan-1-amine], the log distribution coefficient (logD) in data set [1] is > 3.6. Further, the values for the concentration for half-maximal inhibition (IC50) in data set [2] and in data set [5] were 0.41 nM and 1.2 nM, respectively. Further, the “Human plasma protein binding (% free)” value in data set [3] is on record as 1.9 % free. Also, in data set [4] (setting [6]), the solubility at 24 h came out at 176 µM (≈ 89.5 µg/mL).
The molecule `Cc1c(OCCN(C)CCCF)ccc(F)c1[C@@H]1c2[nH]c3ccccc3c2C[C@@H](C)N1CCC(=O)O` [Example 163, 3-((1R,3R)-1-(6-fluoro-3-(2-((3-fluoropropyl)(methyl)amino)ethoxy)-2-methylphenyl)-3-methyl-1,3,4,9-tetrahydro-2H-pyrido[3,4-b]indol-2-yl)propanoic acid] had a pH-dependent lipophilicity (logD) in data set [1] of 0.7. For the same molecule, the values for the IC50 in data set [2] and in data set [5] were 1.2 nM and 3.3 nM, respectively. For the same molecule, the “Human plasma protein binding (% free)” value in data set [3] is on record as 49 % free. The solubility at 24 h in data set [4] (setting [6]) is > 1000 µM.
Molecule `COc1ccc(OCCNCCC(F)(F)F)cc1[C@@H]1c2[nH]c3ccccc3c2C[C@@H](C)N1CC(F)(F)F` [Example 72, 3,3,3-trifluoro-N-(2-(4-methoxy-3-((1R,3R)-3-methyl-2-(2,2,2-trifluoroethyl)-2,3,4,9-tetrahydro-1H-pyrido[3,4-b]indol-1-yl)phenoxy)ethyl)propan-1-amine] displayed a log distribution coefficient (logD) in data set [1] of 5.2. In addition, the 50% inhibitory concentration (IC50) in data set [2] worked out at 0.49 nM; in data set [5], 1.4 nM. In addition, in data set [3], the “Human plasma protein binding (% free)” value is reported as <0.1 % free. In addition, the solubility at 24 h in data set [4] (setting [6]) is < 0.2 µM.
In data set [1], `Cc1c(OCCNCCCF)ccc(F)c1[C@@H]1c2[nH]c3ccccc3c2C[C@@H](C)N1CCC#N` [Example 87, 3-((1R,3R)-1-(6-fluoro-3-(2-((3-fluoropropyl)amino)ethoxy)-2-methylphenyl)-3-methyl-1,3,4,9-tetrahydro-2H-pyrido[3,4-b]indol-2-yl)propanenitrile] showed a pH-dependent lipophilicity (logD) of 3.1. Besides, the IC50 was 0.065 nM in data set [2] and 0.54 nM in data set [5]. For the same molecule, the “Human plasma protein binding (% free)” value in data set [3] came out at 1.6 % free. In data set [4] (setting [6]), this molecule yielded a solubility at 24 h of 71 µM (≈ 33.1 µg/mL).
As to `Cc1c(OCCNCCCF)ncnc1[C@@H]1c2[nH]c3ccccc3c2C[C@@H](C)N1CC(F)(F)CO` [Example 115, 2,2-difluoro-3-((1S,3R)-1-(6-(2-((3-fluoropropyl)amino)ethoxy)-5-methylpyrimidin-4-yl)-3-methyl-1,3,4,9-tetrahydro-2H-pyrido[3,4-b]indol-2-yl)propan-1-ol], the log distribution coefficient (logD) in data set [1] was found to be 2.1. The half-maximal inhibitory concentration (IC50) was 0.31 nM in data set [2] and 1 nM in data set [5]. For the same molecule, the “Human plasma protein binding (% free)” value in data set [3] is 11 % free. This molecule gave a solubility at 24 h in data set [4] (setting [6]) of 983 µM (≈ 483 µg/mL).
`CC(CN1[C@H](c2c(Cl)ccc(OCCNCCCF)c2Cl)c2[nH]c3ccc(F)cc3c2C[C@H]1C)C(=O)O` (single isomer, unassigned) [Example 130]: in data set [1] (pH 7.4), the “LogD pH 7.4” value was 1.5. Moreover, the concentration for half-maximal inhibition (IC50) was found to be 1.3 nM in data set [2] and 1.8 nM in data set [5]. Moreover, the “Human plasma protein binding (% free)” value in data set [3] was determined as 7.8 % free. The same molecule came in with a solubility at 24 h in data set [4] (25° C.) of 854 µM (≈ 474 µg/mL).
With `Cc1c(OCCNCCCF)cncc1[C@@H]1c2[nH]c3ccccc3c2C[C@@H](C)N1CC(F)(F)F` [Example 38, 3-fluoro-N-(2-((4-methyl-5-((1R,3R)-3-methyl-2-(2,2,2-trifluoroethyl)-2,3,4,9-tetrahydro-1H-pyrido[3,4-b]indol-1-yl)pyridin-3-yl)oxy)ethyl)propan-1-amine], the midpoint of inhibition in data set [2], the IC50, lay at 0.19 nM. For the same molecule, the “Human plasma protein binding (% free)” value in data set [3] is 0.91 % free.
In data set [1], `Cc1c(OCCNCCCF)ccc(F)c1[C@@H]1c2[nH]c3ccccc3c2CC(C)(C)N1C[C@H](C)C(=O)O` [Example 134, (S)-3-((R)-1-(6-fluoro-3-(2-((3-fluoropropyl)amino)ethoxy)-2-methylphenyl)-3,3-dimethyl-1,3,4,9-tetrahydro-2H-pyrido[3,4-b]indol-2-yl)-2-methylpropanoic acid] came in with a logD of 0.6. In addition, the IC50 in data set [2] came out at 1.6 nM; in data set [5] it was 5.8 nM. Further, the “% downregulation (in brackets)” value in data set [2] (maximum downregulation) is given as 85%. Moreover, the “Human plasma protein binding (% free)” value in data set [3] is given as 36 % free. In addition, the solubility at 24 h in data set [4] (setting [6]) is > 1000 µM.
In data set [1], `Cc1c(OCCNCCCF)ccc(F)c1[C@@H]1c2[nH]c3ccccc3c2C[C@@H](C)N1CC(F)(F)C(=O)O` [Example 118, 2,2-difluoro-3-((1R,3R)-1-(6-fluoro-3-(2-((3-fluoropropyl)amino)ethoxy)-2-methylphenyl)-3-methyl-1,3,4,9-tetrahydro-2H-pyrido[3,4-b]indol-2-yl)propanoic acid] gave a pH-dependent lipophilicity (logD) of 1.8. Also, the IC50 stood at 5.5 nM in data set [2] and 1.2 nM in data set [5]. Besides, the “Human plasma protein binding (% free)” value in data set [3] turned out to be 8.4 % free. The molecule further registered a solubility at 24 h in data set [4] (setting [6]) of 111 µM (≈ 57.9 µg/mL).
`C[C@@H]1Cc2c([nH]c3ccccc23)[C@@H](c2c(F)ccc(OCCNCCCF)c2Cl)N1CC(C)(C)C(=O)O` [Example 131, 3-((1R,3R)-1-(2-chloro-6-fluoro-3-(2-((3-fluoropropyl)amino)ethoxy)phenyl)-3-methyl-1,3,4,9-tetrahydro-2H-pyrido[3,4-b]indol-2-yl)-2,2-dimethylpropanoic acid] came in with a log distribution coefficient (logD) in data set [1] of 1.2. Further, in data set [3], the “Human plasma protein binding (% free)” value was found to be 32 % free. Moreover, in data set [4] (setting [6]), the solubility at 24 h is > 1000 µM.
Regarding `Cc1c(N(C)CCN(C)CCCF)ccc(F)c1[C@@H]1c2[nH]c3ccccc3c2C[C@@H](C)N1C[C@H](C)C(=O)O` [Example 147, (S)-3-((1R,3R)-1-(6-fluoro-3-((2-((3-fluoropropyl)(methyl)amino)ethyl)(methyl)amino)-2-methylphenyl)-3-methyl-1,3,4,9-tetrahydro-2H-pyrido[3,4-b]indol-2-yl)-2-methylpropanoic acid], in data set [3], the “Human plasma protein binding (% free)” value amounted to 19 % free. In addition, the concentration for half-maximal inhibition (IC50) in data set [5] turned out to be 51 nM.
As for `C[C@@H]1Cc2c([nH]c3ccccc23)[C@@H](c2cccc(NCCNCCCF)c2)N1CC1(F)COC1` [Example 2, N-1-(3-((1R,3R)-2-((3-fluorooxetan-3-yl)methyl)-3-methyl-2,3,4,9-tetrahydro-1H-pyrido[3,4-b]indol-1-yl)phenyl)-N-2-(3-fluoropropyl)ethane-1,2-diamine], the solubility at 24 h in data set [4] (setting [6]) came to 895 µM (≈ 419 µg/mL).
Take `COc1c(OCCNCCCF)cccc1[C@@H]1c2[nH]c3ccccc3c2C[C@@H](C)N1CC1(F)COC1` [Example 5, 3-fluoro-N-(2-(3-((1R,3R)-2-((3-fluorooxetan-3-yl)methyl)-3-methyl-2,3,4,9-tetrahydro-1H-pyrido[3,4-b]indol-1-yl)-2-methoxyphenoxy)ethyl)propan-1-amine]: the values for the IC50 in data set [2] and in data set [5] were 25 nM and 45 nM, respectively. Besides, the solubility at 24 h in data set [4] (setting [6]) turned out to be 357 µM (≈ 178 µg/mL).
Regarding `C[C@@H]1Cc2c([nH]c3ccccc23)[C@@H](c2cccc(N(C)CCNCCCF)c2)N1CC1(F)COC1` [Example 3, N-1-(3-((1R,3R)-2-((3-fluorooxetan-3-yl)methyl)-3-methyl-2,3,4,9-tetrahydro-1H-pyrido[3,4-b]indol-1-yl)phenyl)-N-2-(3-fluoropropyl)-N-1-methylethane-1,2-diamine], the solubility at 24 h in data set [4] (setting [6]) was 712 µM (≈ 344 µg/mL).
The molecule `Cc1ccc(OCCNCCCF)c(F)c1[C@@H]1c2[nH]c3ccccc3c2C[C@@H](C)N1CC(F)(F)F` [Example 80, 3-fluoro-N-(2-(2-fluoro-4-methyl-3-((1R,3R)-3-methyl-2-(2,2,2-trifluoroethyl)-2,3,4,9-tetrahydro-1H-pyrido[3,4-b]indol-1-yl)phenoxy)ethyl)propan-1-amine] yielded a solubility at 24 h in data set [4] (setting [6]) of 13 µM (≈ 6.44 µg/mL).
In the case of `COc1ccc(OC[C@H](C)NCCCF)cc1[C@@H]1c2[nH]c3ccccc3c2C[C@@H](C)N1CC(F)(F)CO` [Example 49, 2,2-difluoro-3-((1R,3R)-1-(5-((S)-2-((3-fluoropropyl)amino)propoxy)-2-methoxyphenyl)-3-methyl-1,3,4,9-tetrahydro-2H-pyrido[3,4-b]indol-2-yl)propan-1-ol], the log distribution coefficient (logD) in data set [1] came to 2.8. Besides, the IC50 in data set [2] came to 0.15 nM; in data set [5] it was 1.2 nM. Besides, the solubility at 24 h in data set [4] (setting [6]) was determined as 335 µM (≈ 174 µg/mL).
Take `C[C@@H]1Cc2c([nH]c3ccccc23)[C@@H](c2ccc(F)c(OCCNCCCF)c2)N1CC(F)(F)F` [Example 74, 3-fluoro-N-(2-(2-fluoro-5-((1R,3R)-3-methyl-2-(2,2,2-trifluoroethyl)-2,3,4,9-tetrahydro-1H-pyrido[3,4-b]indol-1-yl)phenoxy)ethyl)propan-1-amine]: the solubility at 24 h in data set [4] (setting [6]) amounted to 0.9 µM (≈ 0.433 µg/mL).
For `Cc1c(OCCNCCC(F)F)ccc(F)c1[C@@H]1c2[nH]c3ccc(F)cc3c2C[C@@H](C)N1C[C@@H](C)C(=O)O` [Example 162, (R)-3-((1R,3R)-1-(3-(2-((3,3-difluoropropyl)amino)ethoxy)-6-fluoro-2-methylphenyl)-6-fluoro-3-methyl-1,3,4,9-tetrahydro-2H-pyrido[3,4-b]indol-2-yl)-2-methylpropanoic acid], the log distribution coefficient (logD) in data set [1] was determined as 1.8. Further, the “Human plasma protein binding (% free)” value in data set [3] is reported as 27 % free. Moreover, in data set [4] (setting [6]), the solubility at 24 h is > 1000 µM.
`C[C@@H]1Cc2c([nH]c3ccccc23)[C@@H](c2cc(OCCNCCCF)ncn2)N1CC(F)(F)F` [Example 113, 3-fluoro-N-(2-((6-((1S,3R)-3-methyl-2-(2,2,2-trifluoroethyl)-2,3,4,9-tetrahydro-1H-pyrido[3,4-b]indol-1-yl)pyrimidin-4-yl)oxy)ethyl)propan-1-amine] returned a log distribution coefficient (logD) in data set [1] of 4.1. Further, the IC50 was > 300 nM in data set [2] and 17 nM in data set [5]. In addition, the solubility at 24 h in data set [4] (setting [6]) was < 1.6 µM.
